# From patent publication US20150315202A1, “CHLORIN DERIVATIVE USEFUL IN PHOTODYNAMIC THERAPY AND DIAGNOSIS” (RMW CHO GROUP LIMITED, priority 2012, published 2015)
# Values joined by “and” are separate entries in the source; they are usually repeats but may differ in a detail not shown here. Equal values may be shown once.
# Assays:
# [1] = Singlet oxygen phosphorescence at 1270 nm after pulsed laser excitation; type: physicochemical; conditions: for Decay time of photosensitized singlet oxygen phosphorescence / Rise time of photosensitized singlet oxygen phosphorescence: air saturated
# Protocol: Singlet oxygen phosphorescence was detected using measurement of infrared phosphorescence at 1270 nm corresponding to the transition of oxygen molecules from the singlet to the triplet state. Phosphorescence was recorded at room temperature with the laser phosphorescence spectrometer described at A. A. Krasnovsky Jr., Photodynamic action and singlet oxygen, Biofizika, 2004, 49, 305-321; and A. A. Krasnovsky Jr., Singlet oxygen and primary mechanisms of photodynamic therapy and photodynamic diseases, In: Photodynamic therapy at the cellular level, ed. A. B. Uzdensky, Research Singpost, Kerala, India, 2007, 17-62. For excitation, nanosecond pulses of 511 nm radiation from a copper-vapour laser (Troitzk, Physics Institute of the Russian Academy of Science) were employed. Laser radiation passed additionally through a green light filter SZS-22 (4 mm), which transmitted laser light and cut off IR laser radiation caused by heating of the laser tube. Pulse duration was 20 ns, pulse energy varied from 18 to 40 μJ and the pulse repetition rate was 12 kHz. The laser light was collimated on the surface of a 1 cm rectangular quartz cuvette. The diameter of the illuminated spot on the surface of the cell was 5 mm. For kinetic measurements another spectrometer was used without a monochromator. In this case, phosphorescence resulting from the right angle to the excitation beam was focused on the photocathode of a cooled S-1 photomultiplier (FEU-112) through a cut-off IR light filter and an interference filter with the transmission maximum at 1270 nm. The phosphorescence spectra were measured using a MS-80 high throughput grid monochromator. In this case, phosphorescence was focused on the entry slit of this monochromator. The bandwidth of the monochromator corresponded to a 20 nm spectral interval. The monochromatic light was focused on the photocathode of a cooled S-1 photomultiplier (FEU-83). The photomultiplier signal was registered using time-correlated single photon counting and averaged over many laser pulses. In most experiments, one-channel on time was equal to 81 ns. When the pigment bleaching reached 10%, the solution was replaced by a fresh one and measurement was continued. […] Reasonable phosphorescent curves were obtained after 10-20 minutes signal accumulation and therefore samples were changed many times. As described previously (D. A. Butorina, A. A. Krasnovsky Jr. and A. V. Priezzev, Investigation of the kinetic parameters of singlet molecular oxygen in aqueous porphyrin solutions, Influence of detergents and the quencher sodium azide, Biofizika, 2003, 48, 189-196; A. A. Krasnovsky Jr., Luminescence and photochemical studies of singlet oxygen photonics, J. Photochem. Photobiol. A: Chem., 2008, 196, 210-218; and N. Kuznetsova, D. Makarov, O. Yuzhakova, A. Strizhakov, Y. Roumbal, L. Ulanova, A. Krasnovsky and O. Kaliya, Photophysical properties and photodynamic activity of octacationic oxotitanium(IV) phthalocyanines, Photochemical Photobiological Sciences, 2009, 8, 1724-1733), for computer analysis the following two-exponential equation was used: […]
# I(t)I0·[exp(−kdecay·t)−exp(−krise·t)]+n
# where kdecay and krise are the rate constants of the decay and rise phases of the phosphorescence curves after a laser pulse, n is the off noise of the photomultiplier, I0 is the zero-time phosphorescence intensity, and I(t) is the phosphorescence intensity at time t. To reduce contribution of the luminescence of the pigment in the quartz cuvette, which was observed shortly after laser pulses, readings were taken starting from 400 ns after laser pulses in ethanol and 1 μs in water. In addition, phosphorescence and kinetic traces were measured also from the control chlorin e4 sodium solutions containing high concentration of sodium azide, which completely quenched singlet oxygen. […]
# [2] = test system: naso pharyngeal carcinoma with metastases in the lymph nodes of the left neck and in the lung; assay: In vivo studies Example 10: patient, oral chlorin e4 sodium plus laser and LED light; design: species or system human
# Protocol: A patient with naso pharyngeal carcinoma with metastases in the lymph nodes of the left neck and in the lung, was treated successfully. The treatment consisted of five courses. For each course, five doses of 62.5-187.5 mg chlorin e4 sodium were administered orally over the course of eight days. 24-48 hours after each oral dose of chlorin e4 sodium, the patient was treated with laser and LED light having a wavelength of 660 nm and 760 nm. Additionally an interstitial light treatment using a fine needle was performed on the left lung to a tumour that was large in size with an optical fibre laser having a wavelength of 660 nm and 760 nm.
# [3] = Absorption spectra of chlorin e4 sodium solutions; type: physicochemical; conditions: all solvents (ethanol, water, water + SDS)
# Protocol: Absorption spectra were recorded using computerized spectrophotometers Hitachi 3400 (Japan) and SF-2000 (Russia). Fluorescence spectra were measured with a computerized spectrofluorimeter Perkin-Elmer MPF-44B. 10 mm wide quartz cuvettes were used for absorption and fluorescence measurements. Fluorescence was detected at a right angle to the excitation beam. The spectral bandwidth of the monochromator was 3 nm. […] The fluorescence quantum yields (ΦF) were determined using as a reference, solutions of TPPS (m-tetrakis(p-sulfonatophenyl)porphine) in ethanol. According to the literature, the most likely fluorescence quantum yield of TPPS in air-saturated water and ethanol is equal to 0.08 (K. Kalyanasundaram and M. Neumann-Spallart, Photophysical and redox properties of water soluble porphyrins in aqueous media, J. Phys. Chem., 1982, 86, 5163-5169; and A. T. Gradyushko, A. N. Sevchenko, K. N. Solovyov and M. P. Tsvirko, Energetics of photophysical processes in chlorophyll-like molecules, Photochem. Photobiol., 1970, 11, 387-400). The fluorescence of the samples was excited by the monochromatic light corresponding to the maximum of the Soret bands: 415 nm for TPPS in ethanol and 413 nm for TPPS in water, and 403 nm for chlorin e4 sodium in water and ethanol. The monochromator bandwidth was 3 nm. The fluorescence quantum yields (ΦF) were calculated using the following equation: […]
# [4] = test system: brain cancer with metastases in the lung and lymph nodes; assay: In vivo studies Example 12: patient, oral chlorin e4 sodium plus laser and LED light; design: species or system human; conditions: after two courses
# Protocol: A patient with brain cancer with metastases in the lung and lymph nodes, was treated successfully. […] The patient experienced occasional epileptic seizures and severe headaches. The treatment consisted of two courses. For each course, five doses of 62.5-187.5 mg chlorin e4 sodium were administered orally over the course of eight days. 24-48 hours after each oral dose of chlorin e4 sodium, the patient was treated with laser and LED light having a wavelength of 660 nm and 760 nm.
structure (smiles),measurement,setting,value
C=Cc1c(C)c2cc3nc(c(C)c4[nH]c(cc5nc(cc1[nH]2)C(C)=C5CC)c(C)c4C(=O)O)[C@@H](CCC(=O)O)[C@@H]3C [chlorin e4 sodium],Pigment bleaching under laser irradiation,"[1]; 511 nm laser pulses, solutions changed after each 60-180 s irradiation",bleached rather rapidly
same,Decay time of photosensitized singlet oxygen phosphorescence,[1]; Ethanol,13.5 μs and 13.5 ± 0.3 μs
same,Rise time of photosensitized singlet oxygen phosphorescence,[1]; Ethanol,0.3 ± 0.3 μs
same,Decay time of photosensitized singlet oxygen phosphorescence,[1]; Water + 0.2M SDS,3.85 ± 0.3 μs
same,Rise time of photosensitized singlet oxygen phosphorescence,[1]; Water + 0.2M SDS,1.2 ± 0.3 μs
same,Decay time of photosensitized singlet oxygen phosphorescence,[1]; Water,3.3 ± 0.3 μs
same,Rise time of photosensitized singlet oxygen phosphorescence,[1]; Water,1.8 ± 0.4 μs
same,Rise time of singlet oxygen phosphorescence,[1]; ethanol,300 ns
same,Singlet oxygen quantum yield,"[1]; ethanol, from phosphorescence kinetic curves, reference TPPS",0.63±0.05
same,Photosensitizing activity,[1]; water without SDS,lower than in ethanol
same,Response (PET/CT),"[2]; five courses, interstitial light on left lung",very good treatment response
same,Patient status,"[2]; one year and five months after starting, two months after completion of treatment",alive and well
same,Aggregation state from absorption spectra,[3],mostly monomeric
same,Lymph nodes (PET/CT),[4],not yet clear
same,Metabolic activity in the area of the brain tumour (PET/CT),[4],no metabolic activity
same,Response in the lungs (PET/CT),[4],complete response
